From patent US11617773B2, “Elimination of colonic bacterial driving lethal inflammatory cardiomyopathy” (Eligo Bioscience, priority 2020, dated 2023)
No end group written: not given here.

Experiments:
[1] = test system: peripheral blood mononuclear cells; test: IFN-γ ELISPOT, human T cell stimulation; type: cell-based; details: Micro-DCM patients compared to healthy controls
Experimental: IFN-γ ELISPOT was performed as described by Lv et. al. with minor modifications (7), Briefly, PBMCs from patients and healthy volunteers were isolated on density gradients. PBMCs were adjusted to 2×10^6 cells/ml in 0.5 ml of complete IVS medium supplemented with 8% of human serum. Cells were stimulated for 48 h with 0.25 μg/ml of the indicated peptide or left untreated as medium control. After incubation, cells were washed and re-suspended in 0.3 ml of RPMI/10% FOS and approximately 5×10^5 cells/0.1 ml were dispensed in duplicates into previously coated and blocked ELISPOT plates (IFN-γ base kit, MABTECH). After 24 h of incubation at 37° C. the ELISPOT plates were washed and developed as indicated by the manufacturer. Plates were counted using an ELISPOT reader and analyzed with the software ELISPOT 3.1SR (AID). Number of specific IFN-γ positive cells was calculated as the mean of the duplicates minus the mean of the medium control.

B. thetaiotaomicron = test: Quantitative B. thetaiotaomicron PCR in feces; type: in vivo, Bacteroides thetaiotaomicron; details: Rag1^−/− recipients, qPCR
Experimental: Bacterial genomic DNA was extracted using a commercial kit (QIAamp DNA Stool Mini Kit) with minor modifications. Glass beads (Sigma, G4649-10G) were used for an optimal disruption of fecal content and an additional extraction step was introduced after incubation of bacteria with a lysis buffer (20 mg/ml lysozyme—Sigma 62970-5G-F, 2 mM EDTA, 1.2% Triton, 20 mM Tris-HCl). Extracted genomic DNA was used as a template for B. thetaiotaomicron PCR amplification and quantification using a real-time PCR machine (Quant Studio 5) and SYBR Green PCR technology (Applied Biosystems, Thermo Fisher Scientific). B. thetaiotaomicron was quantified using species specific primers that have been established and validated before (39) ([…] and […]) with a cycling protocol of denaturation at 95° C. (2 min), 40 cycles of 95° C. (20 sec), 58° C. (20 sec) and 72° C. (30 sec). Each 17 μl qPCR mixture consisted of 8.5 μl of 2×SYBR Green MasterMix (Applied Biosystems, Thermo Fisher Scientific), 1.7 μl of BSA (100 μg/ml), 0.6 μl of each primer (10 μM), 3.60 μl PCR-grade water and 2 μl of extracted genomic DNA. DNA extracted from B. theta ATCC29148 was used to construct a standard curve with 10-fold dilutions of DNA templates of known concentrations. Concentrations of DNA used in the standard curves ranged from 33.75 ng/μl equivalent to 10^7 bacteria to 0.035 pg/μl equivalent to 10^1 bacteria. […]

Rag1^−/− mice = test: Adoptive transfer myocarditis model with antibiotics treatment; type: in vivo, mouse; details: for accumulation of TCR-transgenic CD4^+ T cells in hearts / cardiac inflammation by flow cytometry (heart-infiltrating CD45^+ cells): day 28
Experimental: For the generation of single-cell suspensions, spleens and lymph nodes were collected in BSS and were mechanically disrupted on a metallic grid. To confirm the presence of heart-infiltrating cells, mice received 2 μg of anti-CD45.2 BV510 or anti-Thy 1.1 PE i.v. 5 min before being euthanized in the indicated experiments. Euthanized animals were perfused with 20 ml PBS and small heart tissue pieces were placed into a 6-well dish filled with RPMI 1640 medium containing 2% FCS, 20 mM HEPES (Lonza), 1 mg/ml collagenase 0 (Sigma) and 25 μg/ml DNasel (Applichem) and incubated at 37° C. under continuous stirring. The remaining tissue pieces were mechanically disrupted and mononuclear cells were purified by centrifugation (25 min at 800×g, 4° C.) on a 30-70% Percoll gradient (GE Healthcare). For isolation of colonic lamina propria cells, colons were flushed and tissue was harvested and incubated three times for 15 min at room temperature under constant agitation with BSS containing 5% FCS (Lonza), 5 mM EDTA (Sigma), 10 mM HEPES (Sigma) and 1 mM OTT in order to dissociate the epithelial layer. The tissue was subsequently washed with SS containing 10 mM HEPES and digested three times for 20 min at 37° C. with 120 μg/ml collagenase P (Roche), 25 μg/ml DNAse I (Applichem) and 5 μg/ml Dispase I (Roche) in RPMI-1640; after obtaining a single cell suspension, cells were purified by a 30-70% Percoll gradient. Single-cell suspensions were first stained with the fixable viability dye Zombie Aqua (Biolegend) and incubated for 30 min on ice; after washing, cells were incubated for 20 min at 4° C. in PBS containing 2% FCS and 10 mM EDTA with fluorochrome-labeled antibodies (Table 5). Cells were acquired with a BD LSRFortessa (BD Biosciences) and analyzed using FlowJo software (Treestar Inc) following stablished guidelines (32). […] Cells were stimulated with 0.25 μg of the different peptides (see below), or phorbol myristate acetate (50 ng/ml; Sigma)/ionomycin (500 ng/ml; Sigma) (PMA/l) as positive control, or were left untreated. After surface molecule labelling, cells were stained with the fixable viability dye Zombie Aqua (Biolegend). Cells were fixed with cytofix-cytoperm (BD Biosciences) for 20 min. […] Samples were measured using a BD LSR Fortessa (BD Biosciences). Data were analyzed using FlowJo software (Tree Star, Inc.). […] Red blood cells were lysed by osmotic shock and 10^6 splenocytes were injected intravenously in 4 wk mice in the lateral tail vein of Rag1^−/− mice. Seven days after adoptive transfer, mice were bled to confirm CD4^+ T cell expansion. Disease activity scores and analysis of T cell activation in the heart and colonic lamina propria were performed at day 28 post adoptive transfer.

[2] = test system: CD4^+ T cells from TCRM mice; test: Ex vivo proliferation assay (CFSE dilution) after peptide re-stimulation; type: cell-based, mouse; details: 3 days
Experimental: Spleen cells were labelled with 10 μl of 5 mM carboxyfluorescein succinimidyl ester (CSFE, dissolved in DMSO) (Molecular Probes) in 10 ml of PBS for 10 min at 37° C. The staining reaction was stopped with 1 mL FCS (Lonza), followed by washing with PBS. A total of 2×10^5 splenocytes/well were seeded in 96-well round-bottom plate and MYH6614-629 (RSLKLMATLFSTYASADR, SEQ ID NO: 10) or Bacteroides β-galactosidase11-25 (TFLILMAALTATFASAQK, SEQ ID NO: 11), Enterobacter cysteine hydrolase10-27 (LLIGMMSTFSTYASAQET, SEQ ID NO: 12) or OVA323-339 (ISQAVHAAHAEINEAGR, SEQ ID NO: 13) peptide was added at the indicated concentrations. CSFE dilution was assessed by flow cytometry after 3 days of incubation at 37° C. All peptides were synthetized by Genscript with >80% of purity.

[3] = test system: CD4^+ T cells from heart and colon of TCRM mice; test: Ex vivo restimulation and cytokine production of murine T cells; type: cell-based, mouse
Experimental: For assessment of ex vivo production of IFN-γ and IL-17, 10^6 lymphocytes were incubated for 3.5 h at 37° C. in 96-well round-bottom plates in 200 μL of RPMI per 5% FCS supplemented with 10 μg/mL brefeldin A (Sigma). Cells were stimulated with 0.25 μg of the different peptides (see below), or phorbol myristate acetate (50 ng/ml; Sigma)/ionomycin (500 ng/ml; Sigma) (PMA/l) as positive control, or were left untreated. After surface molecule labelling, cells were stained with the fixable viability dye Zombie Aqua (Biolegend). Cells were fixed with cytofix-cytoperm (BD Biosciences) for 20 min. Fixed cells were incubated at 4° C. for 40 min with permeabilization buffer (2% FCS, 0.5% saponin in PBS) containing antibodies to CD3, CD4, IFN-γ and IL-17A. Samples were measured using a BD LSR Fortessa (BD Biosciences). Data were analyzed using FlowJo software (Tree Star, Inc.).

TCRM T cells = test: Proliferation of transferred TCRM CD4^+ T cells after injection of peptide loaded dendritic cells; type: in vivo, mouse; details: TCRM CD4^+ T cells transferred into BALB/c mice
Description: FIGS. 7A-I. Specificity and immune interaction of Bacteroides mimic peptide-specific CD4^+ T cells. (FIG. 7A) In vitro proliferation of CD4^+ T cells from TCRM mice or DO11.10 mice measured by CFSE dilution after re-stimulation with MYH6 or Bacteroides β-galactosidase peptide or ovalbumin peptide at indicated concentration (representative histograms from 1 out of 2 experiments) (FIG. 7B) Dendritic cells loaded with MYH6 or β-gal peptide from Bacteroides at the indicated concentration were co-cultured in vitro with CD4^+ T cells from TCRM mice. Maximum proliferation of CD4^+ T cells was analyzed by flow cytometry and effective concentration 50 (EC50) for each peptide was determined. (FIG. 7C) CD4^+ T cells from TCRM mice were adoptively transferred into BALB/c mice. Proliferation of CD4^+ T cells from TCRM mice was determined ex vivo by CFSE dilution after injection of peptide loaded dendritic cells (n=3). (FIG. 7D-FIG. 7E) Colonization of GF TCRM mice with SPF microbiota or B. thetaiotaomicron or E. coli. […] Fold increase values were calculated using the cytokine production in GF mice as baseline (mean±SEM). […] (FIG. 7H) experimental dosing, (FIG. 7I) representative dot plots left and quantification right of IgA bound bacteria; background was set using samples from Rag^−/− mice (mean±SEM). […]

## SLKLMATLFSSYATAD (listed as Homo sapiens) [SEQ ID NO: 17, human myosin heavy chain 6 peptide]
[1]
  IFN-γ reactivity of PBMC: significantly higher IFN-γ reactivity

## CN[C@H](CC(C)C)C(=O)N[C@H]1C(=O)N[C@@H](CC(N)=O)C(=O)N[C@H]2C(=O)N[C@H]3C(=O)N[C@H](C(=O)N[C@H](C(=O)O)c4cc(O)cc(O)c4-c4cc3ccc4O)[C@H](O)c3ccc(c(Cl)c3)Oc3cc2cc(c3O[C@@H]2O[C@H](CO)[C@@H](O)[C@H](O)[C@H]2O[C@H]2C[C@](C)(N)[C@H](O)[C@H](C)O2)Oc2ccc(cc2Cl)[C@H]1O [Vancomycin]
B. thetaiotaomicron
  B. theta levels in fecal samples: reduced
Rag1^−/− mice; IFN-γ production
  activity of Th1 cells: reduced to a lesser extent
Rag1^−/− mice; IL-17 production
  activation of heart-infiltrating and colonic Th17 cells: pronounced impact
Rag1^−/− mice
  accumulation of TCR-transgenic CD4^+ T cells in hearts: significantly reduced accumulation
  cardiac inflammation by flow cytometry (heart-infiltrating CD45^+ cells): profound reduction
Rag1^−/− mice; day 28 post adoptive transfer
  cardiac disease (histopathology): significantly ameliorated

## [H]/N=C(/N)N[C@H]1[C@H](O)[C@@H](O)[C@H](O[C@@H]2O[C@@H](C)[C@](O)(C=O)[C@H]2O[C@@H]2O[C@@H](CO)[C@H](O)[C@@H](O)[C@@H]2NC)[C@@H](N/C(N)=N\[H])[C@@H]1O [Streptomycin]
Rag1^−/− mice
  accumulation of TCR-transgenic CD4^+ T cells in hearts: significantly reduced accumulation
  cardiac inflammation by flow cytometry (heart-infiltrating CD45^+ cells): profound reduction

## LLIGMMSTFSTYASAQET (Enterobacter cysteine hydrolase 10-27) [Enterobacter cloacae peptide, Enterobacter cysteine hydrolase10-27 peptide synthetized by Genscript]
[2]
  in vitro proliferation of CD4^+ T cells from TCRM mice: not

## RSLKLMATLFSTYASADR (MYH6 614-629) [MYH6 peptide, MYH6614-629 peptide synthetized by Genscript]
[3]; CD4^+ T cells from colonic lamina propria, TCRM vs DO11.10
  IFN-γ or IL-17 secretion upon ex-vivo re-stimulation: only MYH6-specific CD4^+ T cells, but not ovalbumin-specific CD4^+ T cells from the colonic lamina propria were able to secrete IFN-γ or IL-17

## TFLILMAALTATFASAQK [B. theta β-gal peptide, TFLILMAALTATFASAQK]
[2]
  in vitro proliferation of CD4^+ T cells from TCRM mice: induced in vitro proliferation
[3]; heart and colon of 12 week old TCRM mice
  ex vivo re-stimulation of transgenic CD4^+ T cells (cytokine production): ex vivo re-stimulation of transgenic CD4^+ T cells from heart and colon
[1]
  IFN-γ reactivity of PBMC: significantly higher IFN-γ reactivity
TCRM T cells
  activation of TCRM T cells in vivo by peptide-pulsed dendritic cells: efficient activation of TCRM T cells in vivo
